The values below come from patent publication US9790235B2, “MK2 inhibitors and uses thereof” (Celgene CAR LLC, priority 2014, dated 2017).

Assay [1] has as its target p38α activated, mitogen-activated protein kinase-activated protein kinase 2 (MAPKAP-K2 or MK2) enzyme (Homo sapiens (Human), UniProt P49137). Kind of assay: MK2 Omnia continuous-read kinase assay for compound potency. The class given is biochemical. An excerpt: Mitogen-Activated Protein Kinase-Activated Protein Kinase 2 Omnia® Assay for Compound Potency Assessment:
The protocol below describes a continuous-read kinase assay optimized to measure potency of compounds against p38α activated, mitogen-activated protein kinase-activated protein kinase 2 (MAPKAP-K2 or MK2) enzyme. Further details of this assay are described by Life Technologies, Carlsbad, Calif. on their website at the following URL: http://tools.lifetechnologies.com/content/sfs/manuals/omnia_kinase_assay_man.pdf.
[Reagent] used: • [MK-2]=0.4 nM, • [ATP]=10 μM and • [ST3-Sox]=10 μM (ATP^appKM=10 μM)
Kinase reactions were started with the addition of 45 μL of the ATP-peptide substrate S/T3-Sox mix and monitored every 71 seconds for 120 minutes at λex360/λem485 in a Synergy H4 plate reader from BioTek (Winooski, Vt.) at room temperature.
Background signals from the no enzyme control wells were subtracted from all progress curves. The initial linear portions of the net progress curves were fit according to a linear equation to yield the slope and percentage of inhibition (% inhibition) at each compound concentration. The net progress curves obtained during the first two hours of reactions were also fit according to an ascending single-exponential equation (Eq. 1) to yield kobs values at each compound concentration. Plots of % Inhibition versus inhibitor concentrations were fit according to a dose-response equation (Eq. 2) to generate IC50 and Hill slope values while plots of kobs versus inhibitor concentration were fit according to Equation 3 (Eq. 3) to generate apparent kinact/KI values using the GraphPad PRISM software (Version 6.00; GraphPad San Diego, Calif.).
[formula] where F is the fluorescence intensity from the plate reader, V0 is a constant reflecting the relationship between the instrument readout and product concentration, t is time, e is Euler's number, and kobs is the observed inactivation rate constant.
[formula] where % Inhibition is percentage of inhibition, IC50 is half maximal inhibitory concentration, [I] is the inhibitor concentration, and n is the Hill slope.

The target in assay [2] is T1, MK2 (Homo sapiens (Human), UniProt P49137).
T1 sequence (P49137 whole entry): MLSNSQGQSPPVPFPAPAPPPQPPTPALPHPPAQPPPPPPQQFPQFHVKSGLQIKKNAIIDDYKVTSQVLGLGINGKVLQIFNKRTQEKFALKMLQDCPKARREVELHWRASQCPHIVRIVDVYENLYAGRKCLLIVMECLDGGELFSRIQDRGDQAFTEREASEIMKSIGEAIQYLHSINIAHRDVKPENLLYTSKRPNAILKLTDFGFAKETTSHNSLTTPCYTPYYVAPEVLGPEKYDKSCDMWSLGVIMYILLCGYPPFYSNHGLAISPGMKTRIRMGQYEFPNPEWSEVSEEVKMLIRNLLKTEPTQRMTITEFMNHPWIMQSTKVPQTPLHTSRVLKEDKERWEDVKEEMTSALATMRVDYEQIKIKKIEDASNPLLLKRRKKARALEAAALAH
Assay [3] deals with T1, MK2. Kind of assay: MK2 cellular assay, total and phospho-Hsp27 (Serine 78) by MSD ELISA (Thp1). The class given is cell-based. The method, then: MK2 Cellular Assay—Detection of Total and Phospho-Hsp27 (Serine 78) by MSD ELISA (Thp1)
Compounds of the invention were assayed in Thp-1 human acute monocytic leukemia cells to measure inhibition of MK2 activity. Thp-1 cells were grown in culture medium containing RPMI/10% FBS (fetal bovine serum)/0.05 mM 2-mercaptoethanol. 72 hours prior to the assay, 8×10^4 cells per well were plated in a 96 well flat bottom plate along with 10 ng/mL phorbol 12-myristate 13-acetate (PMA). Cells were cultured in an incubator at 37° C. until needed for the assay. Cell plate media was replaced with culture media just prior to assay while compound dilutions were being made.
Stock solutions of test compound, 1 mM in DMSO, were prepared. 0.9 μl of test compound was added to 300 μl cell media for a starting concentration of 3000 nM. […] Cell plate media was discarded, followed by addition of 100 μl of the compound containing media. The resulting preparation was incubated at 37° C. for 1 hour.
Test compound-containing cell assay media was removed and the cells were washed once with cell assay media. Cell assay media containing 50 ng/mL LPS (lipopolysaccharide) was added to the each well and incubated for 45 minutes. Following LPS incubation, the cells were washed once with PBS (phosphate-buffered saline) and lysed with 60 μl Cell Extraction Buffer (Invitrogen #FNN0011) plus protease and phosphatase inhibitors. The plate was then stored at −80° C. until further analysis.
The MULTI-SPOT Phospho(Ser78)/Total HSP27 ELISA Assay kit was purchased from Meso Scale […] (MSD; catalog #K15128D). […] The pre-coated MSD plate was blocked with 150 μL/well of 3% BSA in MSD wash buffer. The preparation was placed on a shaker at room temperature for an hour. While the ELISA plate was blocked, the cell assay plate stored at −80° C. was placed on a shaker at 4° C. for 1 hour to thaw.
The blocked MSD plate was washed on a plate washer, tapping out the last bit of wash solution, followed by addition of 30 μl of the lysate from the cell assay plate. The preparation was covered and incubated for 1 hour at room temperature. The lysate was removed, the plate was washed 3 times on a plate washer and the last bit of wash buffer was tapped out and replaced with 25 μl/well detection antibody (anti-total HSP27 conjugated with an electrochemiluminescent compound, MSD SULFO-TAG label, supplied in kit) made in 1% BSA/MSD wash buffer. The plate was incubated for 1 hour at room temperature on a shaker, followed by 3 washes. The last bit of wash buffer was tapped out. 150 μl/well 1×MSD read buffer was added (4× read buffer supplied with kit) and the plate was analyzed on the MSD SECTOR® Imager for analysis. The SECTOR® Imager measures intensity of emitted light to provide a quantitative measure of phosphorylated HSP27 (Ser78) and total HSP27 present in the sample. The relative percent phosphoprotein in a sample is calculated by dividing the Phospho-HSP27 signal intensity over the total HSP27 signal intensity measured in each well.

Where [4] appears, read: [MK-2]=0.4 nM, [ATP]=10 μM, [ST3-Sox]=10 μM, read-out: MK2 IC50.
[5] abbreviates: percentage of modified protein after 60 minutes at room temperature, 10-fold excess of compound, MALDI (I-1 to I-50), magnetic bead MALDI (I-51 to I-129).
Setting [6] is: Thp-1 cells, 1 hour compound, 50 ng/mL LPS 45 minutes, p-HSP27 (Ser78)/total HSP27, read-out: pHSP27 signaling EC50.

Where two headings read alike, the source gives them in different places.
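Throughout, for Mass Modification: covalent binding read from centroid mass shift of compound-treated versus untreated intact MK2, shift divided by compound molecular weight, giving fraction of total protein bound.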

Sequence of p38α activated, mitogen-activated protein kinase-activated protein kinase 2 (MAPKAP-K2 or MK2) enzyme (P49137 whole entry): as above

As for `C[C@@H]1CNc2c(sc3ccc4nc(Oc5nc(Cl)ncc5CS(C)(=O)=O)ccc4c23)C(=O)N1` [I-112, (R)-3-((2-chloro-5-((methylsulfonyl)methyl)pyrimidin-4-yl)oxy)-10-methyl-9,10,11,12-tetrahydro-8H-[1,4]diazepino[5′,6′:4,5]thieno[3,2-f]quinolin-8-one], in assay [1] (setting [4]), the IC50 is < 100 nM. In addition, the “Mass Modification” value in assay [2] (setting [5]) is “E (mass modification of ≧70%)”. For the same compound, the concentration for a half-maximal effect (EC50) in assay [3] (setting [6]) was in the range of 101 to 500 nM.

Turning to `COCCOc1cc(F)nc(Nc2ccc3c(ccc4sc5c(c43)NC[C@@H](C)NC5=O)n2)n1` [I-45, (R)-3-((4-fluoro-6-(2-methoxyethoxy)pyrimidin-2-yl)amino)-10-methyl-9,10,11,12-tetrahydro-8H-[1,4]diazepino[5′,6′:4,5]thieno[3,2-f]quinolin-8-one], in assay [1] (setting [4]), the concentration for half-maximal inhibition (IC50) is < 100 nM. Further, in assay [2] (setting [5]), the “Mass Modification” value is “G (mass modification ≦30%)”. For the same compound, the EC50 in assay [3] is > 1000 nM.

Regarding `C[C@@H]1CNc2c(sc3ccc4nc(N(C)c5cc(F)ncn5)ccc4c23)C(=O)N1` [I-38, (R)-3-((6-fluoropyrimidin-4-yl)(methyl)amino)-10-methyl-9,10,11,12-tetrahydro-8H-[1,4]diazepino[5′,6′:4,5]thieno[3,2-f]quinolin-8-one], the half-maximal inhibitory concentration (IC50) in assay [1] (setting [4]) is < 100 nM. For the same compound, the “Mass Modification” value in assay [2] (setting [5]) was “G (mass modification ≦30%)”. The EC50 in assay [3] was > 1000 nM.

`C[C@@H]1CNc2c(sc3ccc4nc(Oc5nc(Cl)ncc5COCCC#N)ccc4c23)C(=O)N1` [I-111, (R)-3-((2-chloro-4-((10-methyl-8-oxo-9,10,11,12-tetrahydro-8H-[1,4]diazepino[5′,6′:4,5]thieno[3,2-f]quinolin-3-yl)oxy)pyrimidin-5-yl)methoxy)propanenitrile]: the concentration for half-maximal inhibition (IC50) in assay [1] (setting [4]) was < 100 nM. Further, the “Mass Modification” value in assay [2] (setting [5]) was “E (mass modification of ≧70%)”. Besides, the EC50 in assay [3] (setting [6]) was 101 to 500 nM.

On to `C[C@@H]1CNc2c(sc3ccc4nc(Oc5nc(Cl)ncc5CN5C6CCC5COC6)ccc4c23)C(=O)N1` [I-114, (R)-3-((5-((3-oxa-8-azabicyclo[3.2.1]octan-8-yl)methyl)-2-chloropyrimidin-4-yl)oxy)-10-methyl-9,10,11,12-tetrahydro-8H-[1,4]diazepino[5′,6′:4,5]thieno[3,2-f]quinolin-8-one], for which the half-maximal inhibitory concentration (IC50) in assay [1] was in the range of 101 to 500 nM. The “Mass Modification” value in assay [2] (setting [5]) is “E (mass modification of ≧70%)”. Further, the 50% effective concentration (EC50) in assay [3] is < 100 nM.

Consider `C[C@@H]1CNc2c(sc3ccc4nc(Oc5nc(F)nc6c5COC6)ccc4c23)C(=O)N1` [I-119, (R)-3-((2-fluoro-5,7-dihydrofuro[3,4-d]pyrimidin-4-yl)oxy)-10-methyl-9,10,11,12-tetrahydro-8H-[1,4]diazepino[5′,6′:4,5]thieno[3,2-f]quinolin-8-one], for which the IC50 in assay [1] (setting [4]) was < 100 nM. For the same compound, the “Mass Modification” value in assay [2] (setting [5]) is recorded as “F (mass modification of 31-69%)”. The EC50 in assay [3] (setting [6]) was < 100 nM.

With `C[C@@H]1CNc2c(sc3ccc4nc(Nc5cc(F)nc(OC6CCCN(C)C6)n5)ccc4c23)C(=O)N1` (stereo partly drawn) [I-47, (10R)-3-((6-fluoro-2-((1-methylpiperidin-3-yl)oxy)pyrimidin-4-yl)amino)-10-methyl-9,10,11,12-tetrahydro-8H-[1,4]diazepino[5′,6′:4,5]thieno[3,2-f]quinolin-8-one], the IC50 in assay [1] (setting [4]) was < 100 nM. The “Mass Modification” value in assay [2] (setting [5]) is “F (mass modification of 31-69%)”. In assay [3], this compound came in with an EC50 of 101 to 500 nM.

With `C[C@@H]1CNc2c(sc3ccc4nc(Oc5cncc(Cl)n5)ccc4c23)C(=O)N1` [I-55, (R)-3-((6-chloropyrazin-2-yl)oxy)-10-methyl-9,10,11,12-tetrahydro-8H-[1,4]diazepino[5′,6′:4,5]thieno[3,2-f]quinolin-8-one], the 50% inhibitory concentration (IC50) in assay [1] (setting [4]) fell in the range of 101 to 500 nM. The “Mass Modification” value in assay [2] (setting [5]) is given as “G (mass modification ≦30%)”. For the same compound, in assay [3] (setting [6]), the EC50 is > 1000 nM.

For `C[C@@H]1CNc2c(sc3ccc4nc(Oc5nc(Cl)ncc5COC5(C)COC5)ccc4c23)C(=O)N1` [I-103, (R)-3-((2-chloro-5-(((3-methyloxetan-3-yl)oxy)methyl)pyrimidin-4-yl)oxy)-10-methyl-9,10,11,12-tetrahydro-8H-[1,4]diazepino[5′,6′:4,5]thieno[3,2-f]quinolin-8-one], the IC50 in assay [1] (setting [4]) is < 100 nM. Further, in assay [2] (setting [5]), the “Mass Modification” value is listed as “E (mass modification of ≧70%)”. The 50% effective concentration (EC50) in assay [3] (setting [6]) lay within 101 to 500 nM.

In the case of `C[C@@H]1CNc2c(sc3ccc4nc(Oc5nc(Cl)ncc5CN5CCCC(C)(C)C5)ccc4c23)C(=O)N1` [I-95, (R)-3-((2-chloro-5-((3,3-dimethylpiperidin-1-yl)methyl)pyrimidin-4-yl)oxy)-10-methyl-9,10,11,12-tetrahydro-8H-[1,4]diazepino[5′,6′:4,5]thieno[3,2-f]quinolin-8-one], the IC50 in assay [1] (setting [4]) was in the range of 101 to 500 nM. Moreover, the “Mass Modification” value in assay [2] (setting [5]) is on record as “E (mass modification of ≧70%)”. For the same compound, the concentration for a half-maximal effect (EC50) in assay [3] (setting [6]) is < 100 nM.

Consider `Cc1nc(Cl)cc(Oc2ccc3c(ccc4sc5c(c43)NC[C@@H](C)NC5=O)n2)n1` [I-58, (R)-3-((6-chloro-2-methylpyrimidin-4-yl)oxy)-10-methyl-9,10,11,12-tetrahydro-8H-[1,4]diazepino[5′,6′:4,5]thieno[3,2-f]quinolin-8-one], for which, in assay [1] (setting [4]), the IC50 was < 100 nM. The “Mass Modification” value in assay [2] (setting [5]) is reported as “E (mass modification of ≧70%)”. The half-maximal effective concentration (EC50) in assay [3] (setting [6]) was < 100 nM.

As to `COC(=O)c1nc(Cl)cc(Nc2ccc3c(ccc4sc5c(c43)NC[C@@H](C)NC5=O)n2)n1` [I-70, (R)-methyl 4-chloro-6-((10-methyl-8-oxo-9,10,11,12-tetrahydro-8H-[1,4]diazepino[5′,6′:4,5]thieno[3,2-f]quinolin-3-yl)amino)pyrimidine-2-carboxylate], the 50% inhibitory concentration (IC50) in assay [1] (read-out: MK2 IC50) is < 100 nM. The “Mass Modification” value in assay [2] is “E (key: E: mass modification of ≧70%; F: mass modification of 31-69%; G: mass modification ≦30%)”. Moreover, the half-maximal effective concentration (EC50) in assay [3] (setting [6]) was < 100 nM.

On to `C[C@@H]1CNc2c(sc3ccc4nc(Sc5ccnc(Cl)n5)ccc4c23)C(=O)N1` [I-72, (R)-3-((2-chloropyrimidin-4-yl)thio)-10-methy-9,10,11,12-tetrahydro-8H-[1,4]diazepino[5′,6′:4,5]thieno[3,2-f]quinolin-8-one], for which, in assay [1] (setting [4]), the IC50 is < 100 nM. Further, the “Mass Modification” value in assay [2] (setting [5]) was “G (mass modification ≦30%)”. Further, the EC50 in assay [3] (setting [6]) is > 1000 nM.
